Data on ten molecules can be found in US11999728B2, “Estrogen receptor modulators” (Recurium IP Holdings, LLC, priority 2020, dated 2024).

A value given as a limit tells only on which side of the number the result lay.

A short description of data set [1]: Plasma and tumor PK analysis post final dosing in MCF-7 orthotopic model. Format: in vivo, mouse. Particulars: MCF-7 orthotopic model mice; for Tumor AUC: tumor samples 2 h, 8 h and 24 h post final dosing; for AUC / Kp: mouse; for AUC: plasma, post final dosing, 0.25-24 h; for Kp: tumor AUC vs plasma AUC, read-out: Tumor/Plasma ratio. As to the method: Plasma samples were collected with seven time points (0.25 h, 0.5 h, 1 h, 2 h, 4 h, 8 h, and 24 h) post final dosing for PK analysis. Tumor samples were collected with three time points (2 h, 8 h and 24 h) post final dosing for PK analysis.

Data set [2] concerns MCF-7 Human Breast Cancer Orthotopic Model. In words: Efficacy Study on MCF-7 Human Breast Cancer Orthotopic Model (tumor growth inhibition). Format: in vivo, mouse. The following applies: tumor growth inhibition = (1−(Td−T0)/(Cd−C0))×100%; MCF-7 orthotopic model. The method, then: Efficacy Study on MCF-7 Human Breast Cancer Orthotopic Model
The MCF-7 tumor cell line were maintained in vitro as monolayer culture in DMEM Medium supplemented with 15% heat inactivated fetal bovine serum at 37° C. in an atmosphere of 5% CO2 in air. The medium were renewed every 2 to 3 days and tumor cells were routinely subcultured at a confluence of 80%-90% by trypsin-EDTA, not to exceed 4-5 passages. The cells growing in an exponential growth phase were harvested and counted for tumor inoculation.
Each mouse was inoculated subcutaneously on the 2nd right mammary fat pad with the single cell suspension of 95% viable tumor cells (1.5×10^7) in 200 μL DMEM Matrigel mixture (1:1 ratio) without serum for the tumor development. The treatments were started when mean tumor size reached 195 mm^3.
The measurement of tumor size was conducted twice a week with a caliper and the tumor volume (mm^3) was estimated using the formula: TV=a×b^2/2 throughout the study, where “a” and “b” was long and short diameters of a tumor, respectively. The TVs were used for calculation of the tumor growth inhibition (TGI, an indicator of antitumor effectiveness) value using the formula: (1−(Td−T0)/(Cd−C0))×100%. Td and Cd are the mean tumor volumes of the treated and control animals, and T0 and C0 are the mean tumor volumes of the treated and control animals at the start of the experiment. The tumor regression was defined as individual tumor volume decrease (terminal TV compares to initial TV). The percent tumor regression was calculated using the formula: (1−(Td/T0))×100%.

A further data set concerns MCF7. In words: Breast Cancer Cell Proliferation Assay (MCF-7), Cell Titer-Glo. Format: cell-based. Particulars: Homo sapiens, MCF7, 120 h, MCF7 cells, 5 days of compound exposure. In short, it runs like this:
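MCF7 cells in phenol red-free DMEM/F12 with charcoal-stripped FBS exposed 5 days to 10-point dilutions (10–0.000005 μM final), 17β-estradiol as control. Viability by CellTiter-Glo luminescence, background-subtracted and expressed relative to estrogen-only treated cells; day-1 pretreatment wells plated.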
A general note: Cellular ATP, detected with luciferase, serves as a proxy for viable cell number.

Data set [3] in a line: Pharmacokinetic Determination (Mouse PK). Format: in vivo, female CD-1 mice. The following applies: female; for Kp at 2 h: CD-1, PO 10.0 mg/kg, Brain concentration vs plasma concentration at 2 hours post dosing, read-out: B/P ratio; for AUC(0-t) / Cmax / Tmax / half-life / clearance / bioavailability / Vd: CD-1, plasma; for bioavailability: PO 10.0 mg/kg vs IV 3.0 mg/kg; for Vd: read-out: Vdss. The method, then: Pharmacokinetic Determination
Grouping female CD-1 mice weighing 20-30 g randomly to three groups; one group was administered with test compound at a dose of 3.0 mg/kg by intravenous injection, the other two groups were administered with test compound at a dose of 10.0 mg/kg by oral. The formulation for IV groups is DMSO/PEG400/30% HP-β-CD (5/20/75) and the formulation for PO groups is 25% HP-β-CD in 25 mM citrate buffer (pH3.0). After administering, blood samples of intravenous injection group were collected at time points of predose, 0.0833, 0.25, 0.5, 1, 2, 4, 8, 12 and 24 h; blood samples of oral group were collected at time points of predose, 0.25, 0.5, 1, 2, 4, 8, 12, and 24 h. Both blood samples and brain samples were collected at 2 hours post dosing for the second PO group. Standard curve was plotted based on concentrations of the samples in a suitable range, the concentrations of test compounds in plasma samples and brain samples were determined by using LC-MS/MS. Pharmacokinetic parameters were calculated according to drug concentration-time curve using a noncompartmental method by WinNonLin (Phoenix™, version 6.1) or other similar software.

With `C[C@@H]1Cc2c([nH]c3ccccc23)[C@@H](c2c(F)cc(NC3CN(CCCF)C3)cc2F)N1CC(F)(F)CO` [GDC9545, reference compound], in data set [1], the “Tumor AUC” value stood at 183.743 µg·h/mL, the AUC turned out to be 10500 ng·h/mL and the Kp amounted to 17.5. Also, in data set [2], the TGI was 130%. Moreover, in the data set with MCF7, the IC50 was not above 25 nM. Further, the Kp at 2 h in data set [3] stood at 0.17. In data set [3] (PO, 10.0 mg/kg), the area under the curve AUC(0-t) worked out at 13.3 µM·h, the highest level (Cmax) was 960 nM, the Tmax turned out to be 4 h and the half-life is 520 min.

`C[C@@H]1Cc2c([nH]c3ccccc23)[C@@H](c2ccc(N[C@H]3CCN(CCCF)C3)cc2)N1C12CC(C1)C2` [Compound 42, (S)—N-(4-((1R,3R)-2-(bicyclo[1.1.1]pentan-1-yl)-3-methyl-2,3,4,9-tetrahydro-1H-pyrido[3,4-b]indol-1-yl)phenyl)-1-(3-fluoropropyl)pyrrolidin-3-amine]: in data set [1], the “Tumor AUC” value stood at 296.719 µg·h/mL, the AUC is 5310 ng·h/mL and the Kp stood at 55.9. In addition, the TGI in data set [2] is 106%. Also, in the data set on MCF7, the IC50 is not above 25 nM. Further, in data set [3], the Kp at 2 h was 29.4 and the bioavailability stood at 55.4%. In addition, in data set [3] (IV, 3.0 mg/kg), the AUC(0-t) was 1.51 µM·h and the clearance was determined as 40 mL/min/kg. In data set [3] (PO, 10.0 mg/kg), the AUC(0-t) came out at 2.79 µM·h, the peak level (Cmax) was 220 nM and the Tmax came out at 1 h.

On to `CCCN1CC[C@H](Nc2ccc([C@@H]3c4[nH]c5ccccc5c4C[C@@H](C)N3C34CC(C3)C4)cc2)C1` [Compound 72, (S)—N-(4-((1R,3R)-2-(bicyclo[1.1.1]pentan-1-yl)-3-methyl-2,3,4,9-tetrahydro-1H-pyrido[3,4-b]indol-1-yl)phenyl)-1-propylpyrrolidin-3-amine], for which the IC50 with MCF7 is not above 25 nM. Further, in data set [3], the Kp at 2 h amounted to 8.82 and the bioavailability is 51.5%. The molecule further had an AUC(0-t) in data set [3] (IV, 3.0 mg/kg) of 2.17 µM·h. Moreover, in data set [3] (PO, 10.0 mg/kg), the AUC(0-t) turned out to be 3.73 µM·h, the peak level (Cmax) was 240 nM and the Tmax stood at 4 h.

`CCCN1CC(Oc2ccc([C@@H]3c4[nH]c5ccccc5c4C[C@@H](C)N3C34CC(C3)C4)cc2)C1` [Compound 39, (1R,3R)-2-(bicyclo[1.1.1]pentan-1-yl)-3-methyl-1-(4-((1-propylazetidin-3-yl)oxy)phenyl)-2,3,4,9-tetrahydro-1H-pyrido[3,4-b]indole] had an IC50 in the data set with MCF7 not above 25 nM. Further, in data set [3], the Kp at 2 h was 11.4 and the bioavailability was found to be 29.6%. In addition, in data set [3] (IV, 3.0 mg/kg), the AUC(0-t) is 1.33 µM·h, the clearance was found to be 85 mL/min/kg, the half-life is 308 min and the Vd turned out to be 16 L/kg. Further, in data set [3] (PO, 10.0 mg/kg), the AUC(0-t) was 1.31 µM·h, the Cmax turned out to be 224 nM, the Tmax was found to be 0.5 h and the half-life was 237 min.

Take `C[C@@H]1Cc2c([nH]c3ccccc23)[C@@H](c2cnc(NC3CN(CCCF)C3)cn2)N1C12CC(C1)C2` [Compound 16, 5-((1S,3R)-2-(bicyclo[1.1.1]pentan-1-yl)-3-methyl-2,3,4,9-tetrahydro-1H-pyrido[3,4-b]indol-1-yl)-N-(1-(3-fluoropropyl)azetidin-3-yl)pyrazin-2-amine]: in the data set with MCF7, the IC50 was not above 25 nM. Besides, in data set [3] (IV, 3.0 mg/kg), the AUC(0-t) was found to be 2.08 µM·h, the clearance is 53.5 mL/min/kg, the half-life was 231 min and the Vd worked out at 11.8 L/kg. In data set [3], the bioavailability was found to be 39.5%. Besides, in data set [3] (PO, 10.0 mg/kg), the area under the curve AUC(0-t) came to 2.73 µM·h, the Cmax was 590 nM, the Tmax came out at 1 h and the half-life is 194 min.

In the data set on MCF7, `C[C@@H]1Cc2c([nH]c3ccccc23)[C@@H](c2ccc(NC3CN(CCCF)C3)cc2F)N1C12CC(C1)C2` [Compound 15, N-(4-((1R,3R)-2-(bicyclo[1.1.1]pentan-1-yl)-3-methyl-2,3,4,9-tetrahydro-1H-pyrido[3,4-b]indol-1-yl)-3-fluorophenyl)-1-(3-fluoropropyl)azetidin-3-amine] came in with an IC50 not above 25 nM. In addition, in data set [3], the Kp at 2 h was determined as 10.8 and the bioavailability came out at 47.3%. Besides, in data set [3] (IV, 3.0 mg/kg), the AUC(0-t) was 0.892 µM·h, the clearance was 100 mL/min/kg, the half-life was 600 min and the Vd is 66.4 L/kg. Moreover, in data set [3] (PO, 10.0 mg/kg), the AUC(0-t) is 1.45 µM·h, the highest level (Cmax) was 200 nM, the Tmax was 1 h and the half-life was 552 min.

`C[C@@H]1Cc2c([nH]c3ccccc23)[C@@H](c2c(F)cc(N[C@H]3CCN(CCCF)C3)cc2F)N1C12CC(C1)C2` [Compound 19, (S)—N-(4-((1R,3R)-2-(bicyclo[1.1.1]pentan-1-yl)-3-methyl-2,3,4,9-tetrahydro-1H-pyrido[3,4-b]indol-1-yl)-3,5-difluorophenyl)-1-(3-fluoropropyl)pyrrolidin-3-amine] showed an IC50 in the data set on MCF7 not above 25 nM. For the same molecule, in data set [3], the Kp at 2 h was 12.3 and the bioavailability was 69.8%. For the same molecule, in data set [3] (IV, 3.0 mg/kg), the AUC(0-t) amounted to 2.15 µM·h, the clearance came out at 47.6 mL/min/kg, the half-life is 395 min and the Vd turned out to be 23.2 L/kg. For the same molecule, in data set [3] (PO, 10.0 mg/kg), the AUC(0-t) is 5 µM·h, the Cmax was found to be 440 nM, the Tmax amounted to 1 h and the half-life is 510 min.

Turning to `CCCN1CC(Nc2ccc([C@@H]3c4[nH]c5ccccc5c4C[C@@H](C)N3C34CC(C3)C4)cc2)C1` [Compound 31, N-(4-((1R,3R)-2-(bicyclo[1.1.1]pentan-1-yl)-3-methyl-2,3,4,9-tetrahydro-1H-pyrido[3,4-b]indol-1-yl)phenyl)-1-propylazetidin-3-amine], in data set [1], the “Tumor AUC” value was 360.399 µg·h/mL, the AUC is 6780 ng·h/mL and the Kp came out at 53.1. Also, in data set [2], the TGI turned out to be 106%. For the same molecule, the IC50 in the data set with MCF7 is not above 25 nM. Further, in data set [3], the Kp at 2 h was 12 and the bioavailability was determined as 87.7%. The same molecule yielded an AUC(0-t) in data set [3] (IV, 3.0 mg/kg) of 1.03 µM·h. Moreover, in data set [3] (PO, 10.0 mg/kg), the AUC(0-t) is 3 µM·h, the Cmax was 240 nM and the Tmax was found to be 2 h.

On to `C[C@@H]1Cc2c([nH]c3ccccc23)[C@@H](c2c(F)cc(O[C@H]3CCN(CCCF)C3)cc2F)N1C12CC(C1)C2` (single isomer, unassigned) [Compound 6], for which the IC50 in the data set with MCF7 was not above 25 nM. Besides, in data set [3], the Kp at 2 h came out at 4.42 and the bioavailability was determined as 49.5%. Also, in data set [3] (IV, 3.0 mg/kg), the area under the curve AUC(0-t) was 2.93 µM·h, the clearance stood at 30.2 mL/min/kg, the half-life is 546 min and the Vd worked out at 16.7 L/kg. Besides, in data set [3] (PO, 10.0 mg/kg), the AUC(0-t) worked out at 4.84 µM·h, the Cmax stood at 611 nM, the time of peak concentration (Tmax) is 1 h and the half-life was 564 min.

Regarding `C[C@@H]1Cc2c([nH]c3ccccc23)[C@@H](c2c(F)cc(N[C@H]3CCN(CCCF)C3)cc2F)N1C12CC(CO)(C1)C2` (single isomer, unassigned) [Compound 70], the concentration for half-maximal inhibition (IC50) in the data set with MCF7 is not above 25 nM. In data set [3] (IV, 3.0 mg/kg), the AUC(0-t) was 2.46 µM·h, the clearance stood at 36.1 mL/min/kg, the half-life is 391 min and the Vd was 12.2 L/kg. The same molecule showed a bioavailability in data set [3] of 21.4%. In data set [3] (PO, 10.0 mg/kg), the area under the curve AUC(0-t) stood at 2.09 µM·h, the highest concentration (Cmax) came to 210 nM, the Tmax is 2 h and the half-life is 315 min.

The AUC is concentration integrated over time. Lower therefore signals low exposure. In general, IC50 refers to the point on the concentration scale where inhibition reaches its midpoint. As usually defined, the AUC(0-t) is exposure summed from dosing to a finite time, without extrapolation to infinity. Lower therefore signals low exposure. A word on the Cmax: it is the highest concentration seen after dosing. One may read the Tmax as the time from dosing to the highest level. The half-life is how long it takes for the measured level to halve. A higher half-life goes with slow decline. As a reminder, the clearance is the volume of plasma or blood freed of the substance per unit of time. A higher clearance goes with efficient removal. For orientation: bioavailability means the share of a dose that reaches the circulation, judged against a reference dose that is usually intravenous. Read a high bioavailability as much systemic uptake.
